Data: patent US11505575B2, “Cyclic polypeptides for PCSK9 inhibition” (Merck Sharp & Dohme LLC, priority 2018, dated 2022)
*1 amine or outer side, *2 acyl side, *3 side chain or, on linkers, in order; H or OH if unused. Where a SMILES comes first, the peptide text is derived from it. Bridges are numbered along the chain shown (N, C = ends). [ ]: non-standard residue; d: D form. The star is where a group is joined. Pro(3R,4S-CMe2) = CC1(C)[C@@H]2[C@@H](C(=O)O)NC[C@@H]21; Phe(4-guanidino) = N=C(N)Nc1ccc(C[C@H](N)C(=O)O)cc1; Pro(trans-4-Ph) = O=C(O)[C@@H]1C[C@@H](c2ccccc2)CN1; Trp(7-aza) = N[C@@H](Cc1c[nH]c2ncccc12)C(=O)O; Phe(4-CH2NH2) = NCc1ccc(C[C@H](N)C(=O)O)cc1; Pro(4S-NH2) = N[C@@H]1CN[C@H](C(=O)O)C1; Pro(4,4-F2) = O=C(O)[C@@H]1CC(F)(F)CN1; mXylylene = c1cc(C[*:1])cc(C[*:2])c1; Val(3-OH) = CC(C)(O)[C@H](N)C(=O)O; Myristoyl = CCCCCCCCCCCCCC(=O)*; Aad = N[C@@H](CCCC(=O)O)C(=O)O; Chg = N[C@H](C(=O)O)C1CCCCC1; Tle = CC(C)(C)[C@H](N)C(=O)O; NMeA = CN[C@@H](C)C(=O)O; Nva = CCC[C@H](N)C(=O)O; Mpa = O=C(O)CCS; Sar = CNCC(=O)O

Each compound was assayed against human PCSK9 / human LDLR EGFa domain interaction (Homo sapiens, UniProt Q8NBP7) (assay: TR-FRET assay of inhibition of the PCSK9-LDLR protein-protein interaction). Conditions: 20 nM biotinylated human PCSK9 + 20 nM his-tagged human LDLR EGFa domain, 2 hours room temperature.
Chain of human PCSK9 / human LDLR EGFa domain interaction (Q8NBP7 153-692): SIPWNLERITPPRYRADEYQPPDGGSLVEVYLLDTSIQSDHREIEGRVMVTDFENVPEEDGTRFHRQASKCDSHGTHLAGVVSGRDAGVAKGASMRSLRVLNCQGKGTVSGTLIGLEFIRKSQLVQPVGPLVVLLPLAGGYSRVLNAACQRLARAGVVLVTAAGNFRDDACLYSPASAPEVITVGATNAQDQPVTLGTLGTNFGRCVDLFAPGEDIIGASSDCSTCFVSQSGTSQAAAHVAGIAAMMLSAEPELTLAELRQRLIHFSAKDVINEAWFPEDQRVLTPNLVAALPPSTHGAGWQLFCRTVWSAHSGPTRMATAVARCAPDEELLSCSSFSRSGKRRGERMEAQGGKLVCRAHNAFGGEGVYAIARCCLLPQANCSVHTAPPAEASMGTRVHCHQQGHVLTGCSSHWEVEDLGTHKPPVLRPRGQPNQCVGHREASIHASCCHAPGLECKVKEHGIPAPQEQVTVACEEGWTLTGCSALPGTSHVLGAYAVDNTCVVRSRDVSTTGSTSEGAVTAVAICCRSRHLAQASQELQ
Chain of human PCSK9 / human LDLR EGFa domain interaction (Q8NBP7 31-152 partner limits assumed): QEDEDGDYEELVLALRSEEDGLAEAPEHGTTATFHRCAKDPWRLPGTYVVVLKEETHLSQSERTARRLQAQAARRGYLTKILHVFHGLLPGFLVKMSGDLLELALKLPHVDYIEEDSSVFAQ
Type: binding
Method: A time-resolved fluorescence resonance energy (TR-FRET) assay was used to measure inhibition of the PCSK9-LDLR protein-protein interaction. Briefly, 20 nM avitag-biotinylated human PCSK9 was incubated with 20 nM his-tagged human LDLR EGFa domain in the presence of 5 nM LANCE Ulight Streptavidin (Perkin Elmer) and 5 nM europium-Anti-6×His (Perkin Elmer) for 2 hours covered at room temperature in buffer containing 50 mM HEPES, 150 mM NaCl, 5 mM CaCl2, 0.01% BSA and 0.01% Surfactant P20. Compounds were tested in dose-response and concentrations giving half-maximal inhibition calculated using a 4-parameter fit equation.

IC50 [nM] | Compound
1000 to 12100 | CCC[C@H](NC(C)=O)C(=O)N[C@H]1CSCc2cccc(c2)CSC[C@@H](C(N)=O)NC(=O)[C@H]([C@@H](C)O)NC(=O)[C@H](C2CCCCC2)NC(=O)[C@H](Cc2c[nH]c3ncccc23)NC(=O)[C@H](Cc2cnc[nH]2)NC(=O)[C@H](CCC(=O)O)NC(=O)[C@H](Cc2c[nH]c3ncccc23)NC(=O)[C@H]([C@@H](C)O)NC(=O)[C@H]2CCCN2C(=O)[C@H](Cc2ccc(O)cc2)NC(=O)[C@H](C(C)(C)C)NC1=O [Compound 001] (Ac-[Nva]C[Tle]Y[dP]T[Trp(7-aza)]EH[Trp(7-aza)][Chg]TC-NH2; linker 2-13 via mXylylene)
1 to 100 | CCCCCCCCCCCCCC(=O)NCCCC[C@H](NC(C)=O)C(=O)N[C@@H](CCC)C(=O)N[C@H]1CSCc2cccc(c2)CSC[C@@H](C(N)=O)NC(=O)[C@H]([C@@H](C)O)NC(=O)[C@H](C2CCCCC2)NC(=O)[C@H](Cc2c[nH]c3ncccc23)NC(=O)[C@H](Cc2c[nH]cn2)NC(=O)[C@H](CCC(=O)O)NC(=O)[C@H](Cc2c[nH]c3ncccc23)NC(=O)[C@H]([C@@H](C)O)NC(=O)[C@@H]2CCCN2C(=O)[C@H](Cc2ccc(O)cc2)NC(=O)[C@H](C(C)(C)C)NC1=O [Compound 003] (Ac-K(Myristoyl)[Nva]C[Tle]YPT[Trp(7-aza)]EH[Trp(7-aza)][Chg]TC-NH2; linker 3-14 via mXylylene)
1000 to 12100 | CCC[C@@H]1NC(=O)[C@H](Cc2c[nH]c3ncccc23)NC(=O)[C@H]([C@@H](C)O)NC(=O)[C@@H]2CC(F)(F)CN2C(=O)[C@H](Cc2ccc(O)cc2)NC(=O)[C@H](C(C)(C)C)NC(=O)CCSCc2cccc(c2)CSC[C@@H](C(N)=O)NC(=O)[C@H]([C@@H](C)O)NC(=O)[C@H](CCC)NC(=O)[C@H](Cc2ccc(O)cc2)NC(=O)[C@H](CCC(=O)O)NC1=O [Compound 004] ([Mpa][Tle]Y[Pro(4,4-F2)]T[Trp(7-aza)][Nva]EY[Nva]TC-NH2; linker 1-12 via mXylylene)
1000 to 12100 | CCC[C@@H]1NC(=O)[C@H](Cc2c[nH]c3ncccc23)NC(=O)[C@H]([C@@H](C)O)NC(=O)[C@@H]2C[C@@H](c3ccccc3)CN2C(=O)[C@H](Cc2ccc(O)cc2)NC(=O)[C@H](C(C)(C)C)NC(=O)CCSCc2cccc(c2)CSC[C@@H](C(N)=O)NC(=O)[C@H]([C@@H](C)O)NC(=O)[C@H](CCC)NC(=O)[C@H](Cc2ccc(O)cc2)NC(=O)[C@H](CCC(=O)O)NC1=O [Compound 005] ([Mpa][Tle]Y[Pro(trans-4-Ph)]T[Trp(7-aza)][Nva]EY[Nva]TC-NH2; linker 1-12 via mXylylene)
1000 to 12100 | CCC[C@H](NC(C)=O)C(=O)N[C@H]1CSCc2cccc(c2)CSC[C@@H](C(N)=O)NC(=O)[C@H]([C@@H](C)O)NC(=O)[C@H](C2CCCCC2)NC(=O)[C@H](Cc2c[nH]c3ncccc23)NC(=O)[C@H](Cc2cnc[nH]2)NC(=O)[C@H](CCC(=O)O)NC(=O)[C@H](Cc2c[nH]c3ncccc23)NC(=O)[C@H]([C@@H](C)O)NC(=O)[C@H](C)N(C)C(=O)[C@H](Cc2ccc(O)cc2)NC(=O)[C@H](C(C)(C)C)NC1=O [Compound 006] (Ac-[Nva]C[Tle]Y[NMeA]T[Trp(7-aza)]EH[Trp(7-aza)][Chg]TC-NH2; linker 2-13 via mXylylene)
1000 to 12100 | CCC[C@H](NC(C)=O)C(=O)N[C@H]1CSCc2cccc(c2)CSC[C@@H](C(N)=O)NC(=O)[C@H]([C@@H](C)O)NC(=O)[C@H](C2CCCCC2)NC(=O)[C@H](Cc2c[nH]c3ncccc23)NC(=O)[C@H](Cc2c[nH]cn2)NC(=O)[C@H](CCC(=O)O)NC(=O)[C@H](Cc2c[nH]c3ncccc23)NC(=O)[C@H]([C@@H](C)O)NC(=O)CN(C)C(=O)[C@H](Cc2ccc(O)cc2)NC(=O)[C@H](C(C)(C)C)NC1=O [Compound 007] (Ac-[Nva]C[Tle]Y[Sar]T[Trp(7-aza)]EH[Trp(7-aza)][Chg]TC-NH2; linker 2-13 via mXylylene)
100 to 1000 | CCC[C@@H]1NC(=O)[C@H](Cc2c[nH]c3ncccc23)NC(=O)[C@H]([C@@H](C)O)NC(=O)[C@@H]2[C@@H]3[C@H](CN2C(=O)[C@H](Cc2ccc(O)cc2)NC(=O)[C@H](C(C)(C)C)NC(=O)CCSCc2cccc(c2)CSC[C@@H](C(N)=O)NC(=O)[C@H]([C@@H](C)O)NC(=O)[C@H](CCC)NC(=O)[C@H](Cc2ccc(O)cc2)NC(=O)[C@H](CCC(=O)O)NC1=O)C3(C)C [Compound 008] ([Mpa][Tle]Y[Pro(3R,4S-CMe2)]T[Trp(7-aza)][Nva]EY[Nva]TC-NH2; linker 1-12 via mXylylene)
100 to 1000 | CCC[C@@H]1NC(=O)[C@H](Cc2c[nH]c3ncccc23)NC(=O)[C@H]([C@@H](C)O)NC(=O)[C@@H]2C[C@H](N)CN2C(=O)[C@H](Cc2ccc(O)cc2)NC(=O)[C@H](C(C)(C)C)NC(=O)CCSCc2cccc(c2)CSC[C@@H](C(N)=O)NC(=O)[C@H]([C@@H](C)O)NC(=O)[C@H](C2CCCCC2)NC(=O)[C@H](Cc2ccc(O)cc2)NC(=O)[C@H](CCCC(=O)O)NC1=O [Compound 010] ([Mpa][Tle]Y[Pro(4S-NH2)]T[Trp(7-aza)][Nva][Aad]Y[Chg]TC-NH2; linker 1-12 via mXylylene)
100 to 1000 | CCC[C@@H]1NC(=O)[C@H](Cc2c[nH]c3ncccc23)NC(=O)[C@H]([C@@H](C)O)NC(=O)[C@H](Cc2cnc[nH]2)NC(=O)[C@H](Cc2ccc(O)cc2)NC(=O)[C@H](C(C)(C)C)NC(=O)[C@@H](NC(C)=O)CCC(=O)NCc2ccc(cc2)C[C@@H](C(N)=O)NC(=O)[C@H]([C@@H](C)O)NC(=O)[C@H](CCC)NC(=O)[C@H](Cc2ccc(O)cc2)NC(=O)[C@H](CCC(=O)O)NC1=O [Compound 013] (Ac-E[Tle]YHT[Trp(7-aza)][Nva]EY[Nva]T[Phe(4-CH2NH2)]-NH2; lactam 1-12)
100 to 1000 | CCC[C@@H]1NC(=O)[C@H](Cc2c[nH]c3ncccc23)NC(=O)[C@H]([C@@H](C)O)NC(=O)[C@H](Cc2cnc[nH]2)NC(=O)[C@H](Cc2ccc(O)cc2)NC(=O)[C@H](C(C)(C)C)NC(=O)CCSCc2cccc(c2)CSC[C@H](C(N)=O)NC(=O)[C@H]([C@@H](C)O)NC(=O)[C@H](C2CCCCC2)NC(=O)[C@H](Cc2ccc(O)cc2)NC(=O)[C@H](CCC(=O)O)NC1=O [Compound 043] ([Mpa][Tle]YHT[Trp(7-aza)][Nva]EY[Chg]T[dC]-NH2; linker 1-12 via mXylylene)
100 to 1000 | CCC[C@@H]1NC(=O)[C@H](Cc2c[nH]c3ncccc23)NC(=O)[C@H]([C@@H](C)O)NC(=O)[C@H](Cc2cnc[nH]2)NC(=O)[C@H](Cc2ccc(O)cc2)NC(=O)[C@H](C(C)(C)C)NC(=O)CCSCc2cccc(c2)CSC[C@H](C(N)=O)NC(=O)[C@H](C(C)(C)O)NC(=O)[C@H](CCC)NC(=O)[C@H](Cc2ccc(O)cc2)NC(=O)[C@H](CCC(=O)O)NC1=O [Compound 044] ([Mpa][Tle]YHT[Trp(7-aza)][Nva]EY[Nva][Val(3-OH)][dC]-NH2; linker 1-12 via mXylylene)
100 to 1000 | CCC[C@@H]1NC(=O)[C@H](Cc2c[nH]c3ncccc23)NC(=O)[C@H]([C@@H](C)O)NC(=O)[C@H](CCCCN)NC(=O)[C@H](Cc2ccc(O)cc2)NC(=O)[C@H](C(C)(C)C)NC(=O)CCSCc2cccc(c2)CSC[C@@H](C(N)=O)NC(=O)[C@H]([C@@H](C)O)NC(=O)[C@H](C2CCCCC2)NC(=O)[C@H](Cc2ccc(O)cc2)NC(=O)[C@H](CCC(=O)O)NC1=O [Compound 046] ([Mpa][Tle]YKT[Trp(7-aza)][Nva]EY[Chg]TC-NH2; linker 1-12 via mXylylene)
100 to 1000 | CCC[C@@H]1NC(=O)[C@H](Cc2c[nH]c3ncccc23)NC(=O)[C@H]([C@@H](C)O)NC(=O)[C@H](CCC(=O)O)NC(=O)[C@H](Cc2ccc(O)cc2)NC(=O)[C@H](C(C)(C)C)NC(=O)CCSCc2cccc(c2)CSC[C@@H](C(N)=O)NC(=O)[C@H]([C@@H](C)O)NC(=O)[C@H](C2CCCCC2)NC(=O)[C@H](Cc2ccc(O)cc2)NC(=O)[C@H](CCCCN)NC1=O [Compound 047] ([Mpa][Tle]YET[Trp(7-aza)][Nva]KY[Chg]TC-NH2; linker 1-12 via mXylylene)
1000 to 12100 | CCC[C@H](NC(=O)[C@H](Cc1c[nH]c2ncccc12)NC(=O)[C@H](NC(C)=O)[C@@H](C)O)C(=O)NC1CCC(=O)NCCCCCNC(=O)[C@H](Cc2ccc(O)cc2)NC(=O)[C@H](C(C)(C)C)NC(=O)CCSCc2cccc(c2)CSC[C@H](C(N)=O)NC(=O)[C@H]([C@@H](C)O)NC(=O)[C@H](C2CCCCC2)NC(=O)[C@H](Cc2ccc(O)cc2)NC1=O (stereo partly shown) [Compound 049]
100 to 1000 | CCC[C@@H]1NC(=O)[C@H](Cc2c[nH]c3ncccc23)NC(=O)[C@H]([C@@H](C)O)NC(=O)[C@H](Cc2cnc[nH]2)NC(=O)[C@H](Cc2ccc(O)cc2)NC(=O)[C@H](C(C)(C)C)NC(=O)[C@@H](NC(=O)[C@H](CCCNC(=N)N)NC(C)=O)CSCc2cccc(c2)CSC[C@@H](C(N)=O)NC(=O)[C@H]([C@@H](C)O)NC(=O)[C@H](CCC)NC(=O)[C@H](Cc2ccc(O)cc2)NC(=O)[C@H](CCC(=O)O)NC1=O [Compound 050] (Ac-RC[Tle]YHT[Trp(7-aza)][Nva]EY[Nva]TC-NH2; linker 2-13 via mXylylene)
1000 to 12100 | CCC[C@@H]1NC(=O)[C@H](Cc2ccc(NC(=N)N)cc2)NC(=O)[C@H]([C@@H](C)O)NC(=O)[C@H](Cc2cnc[nH]2)NC(=O)[C@H](Cc2ccc(O)cc2)NC(=O)[C@H](C(C)(C)C)NC(=O)CCSCc2cccc(c2)CSC[C@@H](C(N)=O)NC(=O)[C@H]([C@@H](C)O)NC(=O)[C@H](CCC)NC(=O)[C@H](Cc2ccc(O)cc2)NC(=O)[C@H](CCC(=O)O)NC1=O [Compound 055] ([Mpa][Tle]YHT[Phe(4-guanidino)][Nva]EY[Nva]TC-NH2; linker 1-12 via mXylylene)
